In brackets after ≈: the same amount, converted by molar mass. Read-outs that look alike come from different tables or passages of the source. Marks after values point to notes of the source that are not given here.
Experiments:
[1] = system: wild-type (wt) M. tuberculosis strain; experiment: microbe, parasite or virus in culture; type: cell-based, Mycobacterium tuberculosis; details: Mycobacterium tuberculosis
[2] = system: M. tuberculosis strain SPAM13C (LepB-UE); experiment: microbe, parasite or virus in culture; type: cell-based, Mycobacterium tuberculosis; details: for MIC: Mycobacterium tuberculosis; for Change in potency against LepB-UE compared to compound 1: decrease in potency relative to compound 1
in vitro = type: cell-based, African green monkey; details: African green monkey
Protocol: Cytotoxicity against African green monkey adult kidney cell (Vero cells) was determined as previously described using CellTiter-Glo reagent.[44] The concentration causing 50% growth inhibition (IC50) was calculated by fitting the inhibition curves using the Levenberg–Marquardt algorithm.

LepB = target: T1, LepB (Mycobacterium tuberculosis, UniProt P9WKA1); experiment: LepB membrane assay (fluorogenic signal peptide cleavage by cell membrane fraction); type: biochemical; details: M. tuberculosis H37Rv cell membrane fraction, 2 μM peptide substrate, 4 h at 37 °C
T1 construct: we used purified membrane fractions to develop an in vitro assay for signal peptide cleavage; host or cells: γ-irradiated whole M. tuberculosis H37Rv; Triton X-114 membrane fraction
T1 sequence (P9WKA1 1-294): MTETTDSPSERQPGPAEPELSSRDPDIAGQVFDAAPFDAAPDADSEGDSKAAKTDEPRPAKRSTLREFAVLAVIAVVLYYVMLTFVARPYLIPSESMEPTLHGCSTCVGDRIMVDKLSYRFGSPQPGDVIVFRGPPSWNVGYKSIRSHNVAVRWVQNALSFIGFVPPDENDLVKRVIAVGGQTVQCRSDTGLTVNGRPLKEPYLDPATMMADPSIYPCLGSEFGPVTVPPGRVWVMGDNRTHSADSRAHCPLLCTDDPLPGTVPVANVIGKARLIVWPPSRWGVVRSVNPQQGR

[3] = 120 h, […], OD590 after 5 days at 37 °C, average ± SD of at least two experiments, b = single value, read-out: WT MIC
[4] = M. tuberculosis strain SPAM13C, OD590 after 5 days at 37 °C, average ± SD of at least two experiments, b = single value
[5] = 120 h, M. tuberculosis strain SPAM13C, OD590 after 5 days at 37 °C, average ± SD of at least two experiments, b = single value, read-out: LepB-UE MIC

SMILES | MIC [1, 3] [µM] | LepB-UE MIC [2, 4] | MIC [2, 5] [µM] | Change in potency against LepB-UE compared to compound 1 [2] | CC50 (in vitro) [µM] | IC50 (LepB) [µM] | Differential activity (difference in MIC, wt versus LepB-UE) [2] | MIC ([1]; read-out: MIC against wt) [µM] | MIC ([2]; rifampicin, LepB-UE strain, read-out: MIC against LepB-UE) [µM]
C/C(=N\Nc1nc(C)cc(C)n1)c1ccccc1O [Compound 24] | 40 ± 8 (≈ 10.3 µg/mL) | 30 ± 3 µM | 30 to 90 (≈ 7.69 to 23.1 µg/mL) | at least 10 fold | 67 |  |  |  | 
CC(C)=NNc1nc(C)cc(C)n1 [Compound 25] | > 200 |  | > 200 |  | > 100 |  |  |  | 
C/C(=N\Nc1nc(C)cc(C)n1)c1cccnc1 [Compound 26] | > 200 |  | > 200 |  |  |  |  |  | 
Cc1cc(C)nc(NN=C(c2ccccc2)c2ccccc2)n1 [Compound 27] | 17 ± 8 (≈ 5.14 µg/mL) |  | 2.2 ± 0.7 (≈ 0.665 µg/mL) | little impact on antitubercular activity compared to compound 1 | 0.1 | > 200 |  |  | 
C/C(=N\Nc1nnc2c(n1)[nH]c1ccc(C)cc12)c1ccccn1 [Compound 28] | > 200 |  | 4.8 ± 2.4 (≈ 1.52 µg/mL) | activity was comparable to that of 1 | 1.2 | 87 |  |  | 
C/C(=N\Nc1ccccn1)c1ccccn1 [Compound 29] | > 200 |  | 130 (≈ 27.6 µg/mL) | 42 fold | > 100 |  |  |  | 
C/C(=N\NC(=N)c1ccccn1)c1ccccn1 [Compound 30] | 47 ± 6 (≈ 11.2 µg/mL) |  | 7.7 ± 0.2 (≈ 1.84 µg/mL) | activity was comparable to that of 1 | 59 |  |  |  | 
C/C(=N\NC(=O)c1ccncc1)c1ccccn1 [Compound 31] | 4.7 ± 0.3 (≈ 1.13 µg/mL) | 3.6 ± 0.7 µM | 3.5 to 15 (≈ 0.841 to 3.6 µg/mL) | activity was comparable to that of 1 | 10 |  |  |  | 
N=C(N/N=C/c1cccc(Cl)c1)c1ccccn1 [Compound 32] | 59 (≈ 15.3 µg/mL) |  | 41 (≈ 10.6 µg/mL) |  | 62 |  |  |  | 
C/C(=N\NC(=O)c1ccc(Br)o1)c1ccccn1 [Compound 35] | 5.3 ± 3.3 (≈ 1.63 µg/mL) | 8.2^b μM |  |  | 0.6 |  |  |  | 
C/C(=N\NC(=O)c1cc(Br)ccc1O)c1ccccn1 [Compound 37] | 4.2 ± 2.6 (≈ 1.4 µg/mL) | 2.0 ± 0.5 µM | 2 to 2.5 (≈ 0.668 to 0.835 µg/mL) |  | 5.4 |  |  |  | 
C/C(=N\NC(N)=S)c1ccccn1 [Compound 41] | 4 (≈ 0.777 µg/mL) |  | 3.6 (≈ 0.699 µg/mL) | comparable to that of 1 | 22 |  | equally potent toward both wt and LepB-UE |  | 
CC1=NN(c2nc(C)cc(C)n2)C(=O)C1Cc1ccccc1 (stereo not shown) [Compound 45] | 68 ± 12 (≈ 20 µg/mL) |  | 56 ± 3 (≈ 16.5 µg/mL) |  | > 100 |  |  |  | 
CCOC(=O)c1c(C)nn(-c2nc(C)cc(C)n2)c1N [Compound 48] | > 200 |  | 44 ± 6 (≈ 12.1 µg/mL) |  | > 100 |  |  |  | 
Cc1cc(C)nc(-n2nc(C)c3c2CC(c2cccs2)CC3=O)n1 (stereo not shown) [Compound 49] | > 200 |  | > 200 |  |  |  |  |  | 
Cc1cc(C)nc(-n2nc(C)c3c2NC(=O)CC3c2ccccc2)n1 (stereo not shown) [Compound 50] | > 200 |  | > 200 |  | 66 |  |  |  | 
CN(Cc1ccn(C)n1)C(=O)c1ccn(-c2ccc([N+](=O)[O-])cc2)n1 [Compound 51] | > 200 |  | > 200 |  | > 100 |  |  |  | 
Cc1ccn(-c2ccc(C(=O)O)cc2)n1 [Compound 52] | > 200 |  | > 200 |  | > 100 |  |  |  | 
Cc1ccc(C(N)=O)cc1-n1ccc(-c2cccnc2)n1 [Compound 53] | > 200 |  | > 200 |  | > 100 |  |  |  | 
CC(O)c1nc2cc(-n3ccc(-c4cnccn4)n3)ccc2[nH]1 (stereo not shown) [Compound 54] | > 200 |  | > 200 |  | > 100 |  |  |  | 
OCc1ccccc1-n1ccc(-c2cccnc2)n1 [Compound 55] | > 200 |  | > 200 |  | > 100 |  |  |  | 
Cc1ccc(C(N)=O)cc1-n1ccc(-c2cnccn2)n1 [Compound 56] | > 200 |  | > 200 |  | > 100 |  |  |  | 
CO[C@H]1/C=C/O[C@@]2(C)Oc3c(C)c(O)c4c(O)c(c(/C=N/N5CCN(C)CC5)c(O)c4c3C2=O)NC(=O)/C(C)=C\C=C\[C@H](C)[C@H](O)[C@@H](C)[C@@H](O)[C@@H](C)[C@H](OC(C)=O)[C@@H]1C [rifampicin, reference compound] |  |  |  |  |  |  |  | 0.0077 ± 0.0023 (≈ 0.00634 µg/mL) | 0.0054 ± 0.0009 (≈ 0.00444 µg/mL)
